Values joined by “and” are separate entries in the source; they are usually repeats but may differ in a detail not shown here. Equal values may be shown once.
Experiments:
[1] = test system: patients with Niemann-Pick Type C (NPC); settings: Bremova et al. (2015); cited from earlier work
[2] = test system: Npc1−/− mice; test: Coat condition of Npc1−/− mice; assay type: in vivo, mouse; settings: 0.1 g/kg in chow from weaning, nine weeks of age
Text: Separate groups of Npc1^-/- and Npc1^+/+ mice were left untreated, as controls.

[3] = test system: MSA-P patients; test: Case studies, multiple system atrophy Parkinson type (MSA-P) patients; assay type: in vivo, human
Text: Medication was stopped. […] The patient evaluated after one month on acetyl-DL-leucine. […] Episodes of mental confusion completely disappeared. The patient's cognitive structure seemed much clearer and straighter. […] The patient's spouse supported continuing the medication.

[4] = test system: NPC patients; test: Clinical severity score (CSS) and annual severity increment score (ASIS) in NPC patients; assay type: in vivo, human; parameters: key to CSS overall / CSS eye movement / CSS ambulation / CSS speech / CSS swallow / CSS fine motor skills / CSS cognition / CSS memory / CSS seizures: NPC clinical severity score; higher score = greater severity; settings: for CSS overall / CSS ambulation / CSS cognition / CSS eye movement / CSS fine motor skills / CSS memory / CSS seizures / CSS speech / CSS swallow / ASIS overall: NPC patients; for ASIS overall: CSS divided by age
Text: Progression of a neurodegenerative disease over time or through treatment can be monitored, for example, using one or more known tests at two or more time points and comparing the results. Disease progression and/or severity can be assessed, for example, using the Scale for the Assessment and Rating of Ataxia (SARA), Spinocerebellar Ataxia Functional Index (SCAFI), the International Cooperative Ataxia Rating Scale (ICARS), the brief ataxia rating scale (BARS), the modified Disability Rating Scale (mDRS), EuroQol 5Q-5D-5L (EQ-5D-5L), the visual analogue scale (VAS), neuropsychological tests, such as Wechsler Adult Intelligence Scale-Revised (WAIS-R), Wechsler Intelligence Scale for Children-IV (WISC-IV), Montreal Cognitive Assessment (MoCA), as well as scales used in movement disorders, such as the Unified Parkinson's Rating Scale (UPRS) or the Unified Multiple System Atrophy Rating Scale (UMSARS), or other suitable tests. For certain LSDs, such as NPC, particular scores have been developed and validated over the last decades, for instance the clinical severity score (CSS) and annual severity increment score (ASIS) (see Yanjanin et al., “Linear Clinical Progression, Independent of Age of Onset, in Niemann-Pick Disease, Type C,” Am J Med Genet Part B 153B:132-140) and the modified 6-Domain NP-C disability Scale (mDRS score). For example, an NPC patient's severity can be quantified by assigning a CSS, which assesses various parameters of the disease (ambulation, seizures, eye movement, etc.) and gives each parameter a score out of 5. A higher score equals a greater severity. The ASIS quantifies the annual rate of change in the CSS, calculated by dividing the CSS by the patient's age. In this regard, certain scores in these tests are characteristic of symptomatic neurodegenerative disease patients and evidence disease progression and/or severity.
An NPC patient's severity may be quantified by assigning a clinical severity score (CSS), which assesses various parameters of the disease and gives each parameter a score out of 5 (higher score=greater severity). See Yanjanin et al., “Linear Clinical Progression, Independent of Age of Onset, in Niemann-Pick Disease, Type C,” Am J Med Genet Part B 153B:132-140. In an untreated patient, one can typically predict how the CSS will change over time in an individual, as disease progression appears to be linear. For example, if Patient A moves from a CSS of 8 to a CSS of 12 between month 0 and month 12, it can be predicted that by month 36, the patient will have a CSS of 20. The annual severity increment score (ASIS) quantities the annual rate of change in the CSS, calculated by dividing the CSS of a patient by the patient's age. […] Each year, the patient would be expected to progress by 4 CSS points, such that at 4 years of age, the patient's CSS would be 16. If therapeutic intervention slowed or arrested disease progression, one would expect the patient to have a smaller ASIS score after such therapy than at baseline.
Ten NPC patients were administered acetyl-leucine at 4.5 g/day over long durations. ACSS was determined at baseline, and at various time points, for eye movement, ambulation, speech, swallow, fine motor skills, cognition, memory, and seizures. An overall CSS was calculated at baseline and at each such time point by adding the individual CSS values for each parameter (eye movement, ambulation, etc.).
The ASIS at baseline and each time point was calculated using each patient's CSS and age at the time of assessment. The overall ASIS for each patient at each time point is shown below in Table 35.

[5] = MSA-P Patient 2, after 1 month of treatment
[6] = MSA-P Patient 2, after 1 month without treatment
[7] = MSA-P Patient 2, after 2 months without treatment
[8] = one line per Patient, 4.5 g/day, Time Point 2, listed as acetyl-leucine
[9] = one line per Patient, 4.5 g/day, Time Point 3, listed as acetyl-leucine
[10] = one line per Patient, 4.5 g/day, Time Point 4, listed as acetyl-leucine

## CC(=O)NC(CC(C)C)C(=O)O (racemic) [acetyl-DL-leucine]
[1]
  Ataxia in one-month study involving 12 patients: symptomatic improvement of ataxia
[2]
  Coat condition: smooth and glossy coat
[3]; MSA-P Patient 1, 5 g/day, after 3 weeks
  Clinical observation: no significant improvement of gait, reduction of falls or improved hypokinetic rigid-syndrome
[3]; MSA-P Patient 2, 5 g per day, after one month of treatment
  Clinical observation: subjective improvement of dizziness
[3]; [5]
  Coefficient of variation (temporal): 2.7
  Double stance: 25.6%
  Functional Gait Assessment: 24/30
  Max. speed: 214 cm/s
  Step cycle length: 120 cm
  Track width: 3.8 cm
  cadence: 109 steps/minute
  speed: 109 cm/s
[3]; [6]
  Coefficient of variation (temporal): 1.7
  Double stance: 22.5%
  Functional Gait Assessment: 25/30
  Max. speed: 196 cm/s
  Step cycle length: 126 cm
  Track width: 2.3 cm
  cadence: 109 steps/minute
  speed: 114 cm/s
[3]; [7]
  Coefficient of variation (temporal): 2.1
  Double stance: 26.7%
  Functional Gait Assessment: 22/30
  Max. speed: 177 cm/s
  Step cycle length: 107 cm
  Track width: 3.4 cm
  cadence: 106 steps/minute
  speed: 94 cm/s
[3]; MSA-P Patient 2, after two months without medication
  Symptoms without medication: worsening of general symptomatology
[3]; MSA-P Patient 3, 5 g per day, after one month
  Cognitive function (wife's report): significant improvement of cognitive function
[3]; MSA-P Patient 3, after one month
  Gait function: no improvement of gait function
[4]; one line per Patient I.D 1-10, 4.5 g/day, Time Point 2 (78-400 days, Table 25), listed as acetyl-leucine
  CSS overall: 13 and 12 (3×) and 23 and 19 and 22 and 11 (2×) and 33
[4]; [8]
  CSS ambulation: 2 (5×) and 1 (3×) and 4 and 5
  CSS cognition: 3 (5×) and 4 (3×) and 2 and 5
  CSS eye movement: 2 and 3 (9×)
  CSS fine motor skills: 1 (6×) and 4 (2×) and 2 and 5
  CSS memory: 1 (5×) and 3 and 4 (3×) and 0
  CSS seizures: 0 (9×) and 5
  CSS speech: 2 (4×) and 1 (6×)
  CSS swallow: 2 (5×) and 3 (3×) and 0 and 4
[4]; one line per Patient, 4.5 g/day, Time Point 3 (165-644 days), listed as acetyl-leucine
  CSS overall: 10 (2×) and 12 and 21 (2×) and 19 and 11 (2×) and 33
[4]; [9]
  CSS ambulation: 1 (5×) and 2 (3×) and 5
  CSS cognition: 3 (5×) and 4 (3×) and 5
  CSS eye movement: 2 (2×) and 3 (7×)
  CSS fine motor skills: 1 (5×) and 4 (2×) and 2 and 5
  CSS memory: 0 (2×) and 1 (3×) and 3 (2×) and 4 (2×)
  CSS seizures: 0 (8×) and 5
  CSS speech: 1 (6×) and 2 (3×)
  CSS swallow: 2 (4×) and 3 (3×) and 0 and 4
[4]; one line per Patient, 4.5 g/day, Time Point 4
  CSS eye movement: 3
[4]; one line per Patient, 4.5 g/day, Time Point 4 (297-414 days), listed as acetyl-leucine
  CSS overall: 12 and 21 and 33
[4]; [10]
  CSS ambulation: 1 and 2 and 5
  CSS cognition: 3 and 4 and 5
  CSS fine motor skills: 1 and 4 and 5
  CSS memory: 1 and 3 and 4
  CSS seizures: 0 (2×) and 5
  CSS speech: 1 and 2 (2×)
  CSS swallow: 2 and 3 and 4
[4]; one line per patient (order of Table 26), Time Point 2, listed as acetyl-leucine
  ASIS overall: 0.4767 and 0.4299 and 0.6073 and 0.5333 and 0.4452 and 0.7124 and 0.406 and 0.3769 and 1.905 and 0.5926
[4]; one line per patient, Time Point 3, listed as acetyl-leucine
  ASIS overall: 0.3635 and 0.4232 and 0.5523 and 0.5299 and 0.4029 and 0.6656 and 0.3393 and 1.881 and 0.5325
[4]; one line per patient, Time Point 4, listed as acetyl-leucine
  ASIS overall: 0.4162 and 0.5454 and 1.853
[4]; ten NPC patients, 4.5 g/day
  ASIS during treatment relative to ASIS at baseline: all ten patients showed a reduction in ASIS
  Overall change in CSS over the course of the experiment: none of the ten patients showed an overall increase in CSS

From US11793782B2, “Therapeutic agents for neurodegenerative diseases” (priority 2017, dated 2023)
